This is an account of results in patent publication US20200087258A1, “INHIBITOR OF CITRATE TRANSPORTER AND THEIR USE IN THERAPY” (Eternygen GmbH, priority 2017, published 2020).

For assay [1], the target named is T1, INDY (Homo sapiens, UniProt Q86YT5). Nature of the assay: 14C-citrate uptake in HepG2 cells endogenously expressing INDY (NaCT). As to conditions: endogenous INDY. The class given is cell-based. In short, it runs like this: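 HepG2 cells, which express INDY endogenously, were preincubated with compound for 5 min at 37 °C in pH 6.5 Na+ citrate uptake buffer. 14C-citrate ([…]) was then added for 90 min at 37 °C. After washing and NaOH lysis, uptake was measured by scintillation counting, with 5 mM citrate as positive control.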
T1 sequence (Q86YT5 whole entry): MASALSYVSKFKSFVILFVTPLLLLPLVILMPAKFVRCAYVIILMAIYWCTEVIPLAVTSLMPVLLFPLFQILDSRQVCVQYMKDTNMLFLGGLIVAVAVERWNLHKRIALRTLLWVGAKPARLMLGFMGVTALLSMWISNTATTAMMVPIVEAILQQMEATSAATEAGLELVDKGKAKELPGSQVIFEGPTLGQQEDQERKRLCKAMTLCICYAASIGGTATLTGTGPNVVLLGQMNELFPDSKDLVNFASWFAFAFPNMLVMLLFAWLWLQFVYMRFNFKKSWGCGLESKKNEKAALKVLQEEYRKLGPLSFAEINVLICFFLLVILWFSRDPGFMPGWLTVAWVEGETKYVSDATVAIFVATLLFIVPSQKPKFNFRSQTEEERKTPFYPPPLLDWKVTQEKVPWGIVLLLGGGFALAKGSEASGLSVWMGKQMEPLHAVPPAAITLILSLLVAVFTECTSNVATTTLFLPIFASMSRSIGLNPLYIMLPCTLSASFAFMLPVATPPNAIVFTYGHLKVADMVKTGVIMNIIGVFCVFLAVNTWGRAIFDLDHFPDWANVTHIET

Assay [2] has as its target T1, INDY. Briefly: Fatty acid synthesis (FAS) assay from 14C-citrate in HepG2 cells. Conditions: 14C-citrate into fatty acids. In kind it is cell-based. Here is the method: To test the functional activity of selected compounds and to bridge between the in vitro assay for citrate uptake to the physiological relevant lipid accumulation in liver cells a further functional cell assay was performed. This assay measured the effect of selected compounds on the citrate mediated fatty acid synthesis in hepatocytes.
Fatty acid synthesis (FAS) assay in HepG2: The principle of the assay is to measure the generation of ^14C-labelled fatty acids after uptake of ^14C labelled citrate into HepG2 cells. HepG2 cells were seeded into white clear-bottom 96-well plates (50,000/well) coated with collagen and incubated at 37° C. for 16-24 hours. After that plates were washed once with 100 μl PBS (+CaCl2+MgCl2) and 40 μl assay medium ([…] containing 11 mM glucose, 10 mM HEPES and 1 nM Insulin) per well was added. Test substances in assay medium were added ([…], 0.5% DMSO) and incubated for 20 min. After that 10 μl assay medium containing ^14C-citrate (final concentration 50 nM) and PrestoBlue reagent (1× final concentration; Life Technologies) were added and incubated for 60 min (37° C., 5% CO2). Cell viability was measured (Safire microplate reader, ex: 560/em: 590) and plates were incubated for another 30 min. Medium was removed by inverting the plate and cells were washed once with 100 μl ice-cold PBS. Cells were lysed with 50 μl lysis buffer (100 mM NaOH, 0.1% Triton X-100) and plate was sealed with Tape Pads and vortexed. For the saponification reaction plates were incubated for 16-24 hours at 80° C. Seals were removed and 200 μl […] was added for neutralisation of the pH. 150 μl from each well was transferred into the corresponding wells of a 96-well CytoStarT plate (Perkin Elmer) and sealed with TopSeal A (Perkin Elmer). Plates were incubated for 4 h at 70° C. and for 1 h at room temperature in the dark. Signal of ^14C radioactivity was measured (TopCount NXT scintillation counter, 1 min/well). As a positive control 5 mM citrate or 40 μM C75 (Sigma, C5490) was applied.

In the case of `O=C(NCc1ccccn1)C1CCN(S(=O)(=O)c2cc(Cl)cc(Cl)c2)CC1` [Example 55, 1-(3,5-dichlorobenzenesulfonyl)-N-[(pyridin-2-yl)methyl]piperidine-4-carboxamide], the IC50 was 400 nM at INDY [1] and 600 nM on INDY [2].

For `O=C(NCc1ccccc1F)C1CCN(S(=O)(=O)c2ccc(C(F)(F)F)cc2)CC1` [Example 25, N-[(2-fluorophenyl)methyl]-1-[4-(trifluoromethyl)benzenesulfonyl]piperidine-4-carboxamide], the values for the 50% inhibitory concentration (IC50) at INDY [1] and at INDY [2] were 300 nM and 400 nM, respectively.

On to `O=C(NCc1ccccn1)C1CCN(S(=O)(=O)c2ccc(C(F)(F)F)cc2)CC1` [Example 57, N-[(pyridin-2-yl)methyl]-1-[4-(trifluoromethyl)benzenesulfonyl]piperidine-4-carboxamide], for which the IC50 against INDY [1] and on INDY [2] was 2500 nM each time.

Take `CC(C)(C)c1ccc(S(=O)(=O)N2CCC(C(=O)NCc3ccccc3F)CC2)cc1` [Example 12, 1-(4-tert-butylbenzenesulfonyl)-N-[(2-fluorophenyl)methyl]piperidine-4-carboxamide]: the concentration for half-maximal inhibition (IC50) at INDY [1] was determined as 1000 nM; against INDY [2] it was 600 nM.

`O=C(NCc1ccccc1F)C1CCN(S(=O)(=O)c2cc(Cl)cc(Cl)c2)CC1` [Example 44, 1-(3,5-dichlorobenzenesulfonyl)-N-[(2-fluorophenyl)methyl]piperidine-4-carboxamide]: the concentration for half-maximal inhibition (IC50) at INDY [1] was found to be 100 nM; against INDY [2], 30 nM.

As for `O=C(NCc1ccccn1)C1CCN(S(=O)(=O)c2ccc(S(F)(F)(F)(F)F)cc2)CC1` [Example 86, 1-[4-(pentafluoro-lambda6-sulfanyl)benzenesulfonyl]-N-[(pyridin-2-yl)methyl]pipendine-4-carboxamide], the concentration for half-maximal inhibition (IC50) against INDY [1] and on INDY [2] was 400 nM each time.

As for `COc1ccccc1CNC(=O)C1CN(S(=O)(=O)c2ccc(C(C)(C)C)cc2)C1` [Example 50, 1-(4-tert-butylbenzenesulfonyl)-N-[(2-methoxyphenyl)methyl]azetidine-3-carboxamide], the IC50 on INDY [1] is 7000 nM; against INDY [2], 6200 nM.

As to `O=C(NCc1ccccc1CO)C1CCN(S(=O)(=O)c2cc(Cl)cc(Cl)c2)CC1` [Example 87, 1-(3,5-dichlorobenzenesulfonyl)-N-{[2-(hydroxymethyl)phenyl]methyl}piperidine-4-carboxamide], the results for the IC50 on INDY [1] and at INDY [2] were 200 nM and 600 nM, respectively.

Turning to `O=C(NCc1ccccn1)C1CCN(S(=O)(=O)c2cc(Cl)cc(C3CC3)c2)CC1` [Example 101, 1-(3-chloro-5-cyclopropylbenzenesulfonyl)-N-[(pyridin-2-yl)methyl]piperidine-4-carboxamide], the IC50 on INDY [1] worked out at 100 nM; against INDY [2] it was 200 nM.

Take `O=C(NCc1ccccc1F)C1CCN(S(=O)(=O)/C=C/c2ccccc2)CC1` [Example 5]: the concentration for half-maximal inhibition (IC50) against INDY [1] turned out to be 2000 nM; at INDY [2] it was 1300 nM.

As a reminder, the IC50 is the concentration that inhibits the measured activity by half. A higher IC50 goes with lower potency.
